From patent US20260078120A1, “SUBSTITUTED PYRIDOPYRIMIDINONES” (MIRATI THERAPEUTICS, INC., priority 2022, published 2026) come the findings set out here.

For orientation: IC50 means the concentration at which inhibition is half-maximal.

The test system of experiment [1] is SKBR3 (PI3Kα wild type) cells. Put plainly: CellTiter-Glo 2.0 luminescent cell viability assay, 72 hours, SKBR3 cells. It is filed as cell-based. The conditions noted are these: SKBR3 (PI3Kα wild type) cells, CellTiter-Glo, approximately 72 hours, read-out: SKBR3 (WT) Viability IC50. In a few lines:
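Viability measured via CTG luminescence following roughly 72 hours of compound exposure at 37° C. Dosing used a 10 um starting concentration diluted 1:4 over 10 points; percent-of-vehicle data fitted with a variable-slope four-parameter model for IC50.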
In general terms: Cellular ATP, detected with luciferase, serves as a proxy for viable cell number.

Experiment [2] has as its system T47D (PI3Kα H1047R mutant) cells. Put plainly: CellTiter-Glo 2.0 luminescent cell viability assay, 72 hours, T47D cells. It is filed as cell-based. To be noted: T47D (PI3Kα H1047R mutant) cells, CellTiter-Glo, approximately 72 hours, read-out: T47D (H1047R mutant) Viability IC50. Summed up: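 Cells seeded at 1000 per well overnight were dosed with a 10-concentration, 1:4 series starting at 10 µM and incubated ~72 h at 37° C. Viability was read by CellTiter-Glo 2.0 luminescence after 30 min at room temperature. IC50 came from four-parameter fits of percent vehicle control.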

Each structure is given as a SMILES string. Where two headings read alike, the source gives them in different places.

As to `Cc1cc([C@@H](C)Nc2ccccc2C(=O)O)c2nc(N3CC(F)(F)C4(CC4)C3)c(C)c(=O)n2c1` [Example 11-61, (R)-2-((1-(2-(7,7-difluoro-5-azaspiro[2.4]heptan-5-yl)-3,7-dimethyl-4-oxo-4H-pyrido[1,2-a]pyrimidin-9-yl)ethyl)amino)benzoic acid], the concentration for half-maximal inhibition (IC50) was greater than 10 µM in experiment [1] (Homo sapiens, SK-BR-3, 72 h) and 0.145 µM in experiment [2] (Homo sapiens, T47D, 72 h).

As to `Cc1cc([C@@H](C)Nc2ccccc2C(=O)O)c2nc(N3CCC4(CCOC4)CC3)c(C)c(=O)n2c1` [Example 11-62, (R)-2-((1-(3,7-dimethyl-4-oxo-2-(2-oxa-8-azaspiro[4.5]decan-8-yl)-4H-pyrido[1,2-a]pyrimidin-9-yl)ethyl)amino)benzoic acid], the IC50 in experiment [1] was greater than 10 µM; in experiment [2], 0.173 µM.

Consider `Cc1cc([C@@H](C)Nc2ccccc2C(=O)O)c2nc(N3CCC4(CCCO4)CC3)c(C)c(=O)n2c1` [Example 11-63, (R)-2-((1-(3,7-dimethyl-4-oxo-2-(1-oxa-8-azaspiro[4.5]decan-8-yl)-4H-pyrido[1,2-a]pyrimidin-9-yl)ethyl)amino)benzoic acid], for which the IC50 is greater than 10 µM in experiment [1] (Homo sapiens, SK-BR-3, 72 h) and 0.136 µM in experiment [2] (Homo sapiens, T47D, 72 h).

For the compound `Cc1cc([C@@H](C)Nc2ccccc2C(=O)O)c2nc(N3CCC(F)(F)[C@H](C)C3)c(C#N)c(=O)n2c1` [Example 11-64, 2-(((R)-1-(3-cyano-2-((R)-4,4-difluoro-3-methylpiperidin-1-yl)-7-methyl-4-oxo-4H-pyrido[1,2-a]pyrimidin-9-yl)ethyl)amino)benzoic acid], the half-inhibitory concentration (IC50) was greater than 10 µM in experiment [1] (Homo sapiens, SK-BR-3, 72 h) and 0.131 µM in experiment [2] (Homo sapiens, T47D, 72 h).

For the compound `Cc1cc([C@@H](C)Nc2ccccc2C(=O)O)c2nc(N3CCC(F)(F)C(C)C3)c(C)c(=O)n2c1` (stereo partly drawn) [Example 11-65, 2-(((1R)-1-(2-(4,4-difluoro-3-methylpiperidin-1-yl)-3,7-dimethyl-4-oxo-4H-pyrido[1,2-a]pyrimidin-9-yl)ethyl)amino)benzoic acid], the concentration for half-maximal inhibition (IC50) in experiment [1] (Homo sapiens, SK-BR-3, 72 h) is greater than 10 µM; in experiment [2] (Homo sapiens, T47D, 72 h), 0.146 µM.

For `CO[C@@H]1CCN(c2nc3c([C@@H](C)Nc4ccccc4C(=O)O)cc(C)cn3c(=O)c2C#N)CC1(F)F` [Example 11-66, 2-(((R)-1-(3-cyano-2-((R)-3,3-difluoro-4-methoxypiperidin-1-yl)-7-methyl-4-oxo-4H-pyrido[1,2-a]pyrimidin-9-yl)ethyl)amino)benzoic acid], the IC50 in experiment [1] (Homo sapiens, SK-BR-3, 72 h) is greater than 10 µM; in experiment [2] (Homo sapiens, T47D, 72 h) it was 0.231 µM.

With `COC1CCN(c2nc3c([C@@H](C)Nc4ccccc4C(=O)O)cc(C)cn3c(=O)c2C#N)CC1(F)F` (stereo partly drawn) [Example 11-67, 2-(((1R)-1-(3-cyano-2-(3,3-difluoro-4-methoxypiperidin-1-yl)-7-methyl-4-oxo-4H-pyrido[1,2-a]pyrimidin-9-yl)ethyl)amino)benzoic acid], the IC50 in experiment [1] (Homo sapiens, SK-BR-3, 72 h) is greater than 10 µM; in experiment [2] (Homo sapiens, T47D, 72 h), 0.144 µM.

Take `Cc1cc([C@@H](C)Nc2ccccc2C(=O)O)c2nc(N3CCC(C)(C#N)CC3)c(C#N)c(=O)n2c1` [Example 11-68, (R)-2-((1-(3-cyano-2-(4-cyano-4-methylpiperidin-1-yl)-7-methyl-4-oxo-4H-pyrido[1,2-a]pyrimidin-9-yl)ethyl)amino)benzoic acid]: the concentration for half-maximal inhibition (IC50) in experiment [1] (Homo sapiens, SK-BR-3, 72 h) is greater than 10 µM; in experiment [2] (Homo sapiens, T47D, 72 h), 0.508 µM.

For `Cc1cc([C@@H](C)Nc2ccccc2C(=O)O)c2nc(N3CCC(C)(C#N)CC3)c(C)c(=O)n2c1` [Example 11-69, (R)-2-((1-(2-(4-cyano-4-methylpiperidin-1-yl)-3,7-dimethyl-4-oxo-4H-pyrido[1,2-a]pyrimidin-9-yl)ethyl)amino)benzoic acid], the concentration for half-maximal inhibition (IC50) in experiment [1] (Homo sapiens, SK-BR-3, 72 h) is greater than 10 µM; in experiment [2] (Homo sapiens, T47D, 72 h), 0.168 µM.

Turning to `Cc1cc([C@@H](C)Nc2ccccc2C(=O)O)c2nc(N3CCC(C(F)(F)F)CC3)c(C#N)c(=O)n2c1` [Example 11-70, (R)-2-((1-(3-cyano-7-methyl-4-oxo-2-(4-(trifluoromethyl)piperidin-1-yl)-4H-pyrido[1,2-a]pyrimidin-9-yl)ethyl)amino)benzoic acid], the IC50 in experiment [1] (Homo sapiens, SK-BR-3, 72 h) is greater than 10 µM; in experiment [2] (Homo sapiens, T47D, 72 h) it was 0.268 µM.

With `Cc1cc([C@@H](C)Nc2ccccc2C(=O)O)c2nc(N3CCC(C(F)(F)F)CC3)c(C)c(=O)n2c1` [Example 11-71, (R)-2-((1-(3,7-dimethyl-4-oxo-2-(4-(trifluoromethyl)piperidin-1-yl)-4H-pyrido[1,2-a]pyrimidin-9-yl)ethyl)amino)benzoic acid], the half-maximal inhibitory concentration (IC50) is greater than 10 µM in experiment [1] (Homo sapiens, SK-BR-3, 72 h) and 0.387 µM in experiment [2] (Homo sapiens, T47D, 72 h).

As for `Cc1cc([C@@H](C)Nc2ccccc2C(=O)O)c2nc(N3CCC(C#N)CC3)c(C#N)c(=O)n2c1` [Example 11-72, (R)-2-((1-(3-cyano-2-(4-cyanopiperidin-1-yl)-7-methyl-4-oxo-4H-pyrido[1,2-a]pyrimidin-9-yl)ethyl)amino)benzoic acid], the half-maximal inhibitory concentration (IC50) is greater than 10 µM in experiment [1] (Homo sapiens, SK-BR-3, 72 h) and 0.441 µM in experiment [2] (Homo sapiens, T47D, 72 h).

With `Cc1cc([C@@H](C)Nc2ccccc2C(=O)O)c2nc(N3CCC(C#N)CC3)c(C)c(=O)n2c1` [Example 11-73, (R)-2-((1-(2-(4-cyanopiperidin-1-yl)-3,7-dimethyl-4-oxo-4H-pyrido[1,2-a]pyrimidin-9-yl)ethyl)amino)benzoic acid], the IC50 was greater than 10 µM in experiment [1] (Homo sapiens, SK-BR-3, 72 h) and 0.272 µM in experiment [2] (Homo sapiens, T47D, 72 h).

With `Cc1ccc(C#N)c(N2CCN(c3nc4c([C@@H](C)Nc5ccccc5C(=O)O)cc(C)cn4c(=O)c3C)[C@H](C)C2)c1` [Example 11-74, 2-(((R)-1-(2-((R)-4-(2-cyano-5-methylphenyl)-2-methylpiperazin-1-yl)-3,7-dimethyl-4-oxo-4H-pyrido[1,2-a]pyrimidin-9-yl)ethyl)amino)benzoic acid], the IC50 is greater than 10 µM in experiment [1] (Homo sapiens, SK-BR-3, 72 h) and 1.98 µM in experiment [2] (Homo sapiens, T47D, 72 h).

As to `Cc1ccc(C#N)c(N2CCN(c3nc4c([C@@H](C)Nc5ccccc5C(=O)O)cc(C)cn4c(=O)c3C)[C@@H](C)C2)c1` [Example 11-75, 2-(((R)-1-(2-((S)-4-(2-cyano-5-methylphenyl)-2-methylpiperazin-1-yl)-3,7-dimethyl-4-oxo-4H-pyrido[1,2-a]pyrimidin-9-yl)ethyl)amino)benzoic acid], the IC50 in experiment [1] (Homo sapiens, SK-BR-3, 72 h) is greater than 10 µM; in experiment [2] (Homo sapiens, T47D, 72 h), 1.57 µM.

With `Cc1cc([C@@H](C)Nc2ccccc2C(=O)O)c2nc(N3CCN(c4ccc(C(F)(F)F)cc4C#N)C[C@H]3C)c(C#N)c(=O)n2c1` [Example 11-76, 2-(((R)-1-(3-cyano-2-((R)-4-(2-cyano-4-(trifluoromethyl)phenyl)-2-methylpiperazin-1-yl)-7-methyl-4-oxo-4H-pyrido[1,2-a]pyrimidin-9-yl)ethyl)amino)benzoic acid], the IC50 in experiment [1] (Homo sapiens, SK-BR-3, 72 h) is greater than 10 µM; in experiment [2] (Homo sapiens, T47D, 72 h), 0.34 µM.

As to `Cc1cc([C@@H](C)Nc2ccccc2C(=O)O)c2nc(N3CCN(c4ccc(C(F)(F)F)cc4C#N)C[C@@H]3C)c(C#N)c(=O)n2c1` [Example 11-77, 2-(((R)-1-(3-cyano-2-((S)-4-(2-cyano-4-(trifluoromethyl)phenyl)-2-methylpiperazin-1-yl)-7-methyl-4-oxo-4H-pyrido[1,2-a]pyrimidin-9-yl)ethyl)amino)benzoic acid], the IC50 in experiment [1] (Homo sapiens, SK-BR-3, 72 h) was greater than 10 µM; in experiment [2] (Homo sapiens, T47D, 72 h), 0.552 µM.

For the compound `Cc1cc([C@@H](C)Nc2ccccc2C(=O)O)c2nc(N3CCN(c4ccc(C(F)(F)F)cc4C#N)CC3C)c(C#N)c(=O)n2c1` (stereo partly drawn) [Example 11-78, 2-(((1R)-1-(3-cyano-2-(4-(2-cyano-4-(trifluoromethyl)phenyl)-2-methylpiperazin-1-yl)-7-methyl-4-oxo-4H-pyrido[1,2-a]pyrimidin-9-yl)ethyl)amino)benzoic acid], the half-inhibitory concentration (IC50) is greater than 10 µM in experiment [1] (Homo sapiens, SK-BR-3, 72 h) and 0.256 µM in experiment [2] (Homo sapiens, T47D, 72 h).

In the case of `Cc1cc([C@@H](C)Nc2ccccc2C(=O)O)c2nc(N3CCN(c4ccc(C(F)(F)F)cc4C#N)C[C@H]3C)c(C)c(=O)n2c1` [Example 11-79, 2-(((R)-1-(2-((R)-4-(2-cyano-4-(trifluoromethyl)phenyl)-2-methylpiperazin-1-yl)-3,7-dimethyl-4-oxo-4H-pyrido[1,2-a]pyrimidin-9-yl)ethyl)amino)benzoic acid], the IC50 is 4.55 µM in experiment [1] (Homo sapiens, SK-BR-3, 72 h) and 0.187 µM in experiment [2] (Homo sapiens, T47D, 72 h).

With `Cc1cc([C@@H](C)Nc2ccccc2C(=O)O)c2nc(N3CCN(c4ccc(C(F)(F)F)cc4C#N)C[C@@H]3C)c(C)c(=O)n2c1` [Example 11-80, 2-(((R)-1-(2-((S)-4-(2-cyano-4-(trifluoromethyl)phenyl)-2-methylpiperazin-1-yl)-3,7-dimethyl-4-oxo-4H-pyrido[1,2-a]pyrimidin-9-yl)ethyl)amino)benzoic acid], the 50% inhibitory concentration (IC50) in experiment [1] (Homo sapiens, SK-BR-3, 72 h) is greater than 10 µM; in experiment [2] (Homo sapiens, T47D, 72 h) it was 0.33 µM.

As to `Cc1cc([C@@H](C)Nc2ccccc2C(=O)O)c2nc(N3CCN(c4ccc(C(F)(F)F)cc4C#N)CC3C)c(C)c(=O)n2c1` (stereo partly drawn) [Example 11-81, 2-(((1R)-1-(2-(4-(2-cyano-4-(trifluoromethyl)phenyl)-2-methylpiperazin-1-yl)-3,7-dimethyl-4-oxo-4H-pyrido[1,2-a]pyrimidin-9-yl)ethyl)amino)benzoic acid], the IC50 in experiment [1] (Homo sapiens, SK-BR-3, 72 h) is greater than 10 µM; in experiment [2] (Homo sapiens, T47D, 72 h) it was 0.579 µM.

Turning to `Cc1cc([C@@H](C)Nc2ccccc2C(=O)O)c2nc(N3CCN(c4ccccc4C#N)C[C@@H]3C)c(C)c(=O)n2c1` [Example 11-82, 2-(((R)-1-(2-((S)-4-(2-cyanophenyl)-2-methylpiperazin-1-yl)-3,7-dimethyl-4-oxo-4H-pyrido[1,2-a]pyrimidin-9-yl)ethyl)amino)benzoic acid], the IC50 is greater than 10 µM in experiment [1] (Homo sapiens, SK-BR-3, 72 h) and 0.303 µM in experiment [2] (Homo sapiens, T47D, 72 h).
